The source made the active and inactive calls. No cut-off for these calls is given here.
Key:
[1] = target: T1, D-histidine 2-aminobutanoyltransferase (Staphylococcus aureus (strain Mu50 / ATCC 700699)) (UniProt A0A0H3JXA8); experiment: Inhibition of N-terminal his6-tagged Staphylococcus aureus ATCC 700699 CntL at 5 uM using SAM as substrate preincubated with compound for 10 mins followed by substrate addition and measured after 25 mins in presence of NADPH by microplate reader analysis relative to control; details: time 35.0 min
T1 sequence (whole entry): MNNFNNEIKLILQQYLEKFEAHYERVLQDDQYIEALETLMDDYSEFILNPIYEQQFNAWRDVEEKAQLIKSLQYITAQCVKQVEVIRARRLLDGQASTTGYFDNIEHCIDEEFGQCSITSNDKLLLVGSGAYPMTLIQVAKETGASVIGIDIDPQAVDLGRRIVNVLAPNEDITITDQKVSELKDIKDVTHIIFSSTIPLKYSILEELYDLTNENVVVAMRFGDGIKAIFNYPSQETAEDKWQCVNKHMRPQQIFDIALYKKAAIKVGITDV

[2] = target: T1, D-histidine 2-aminobutanoyltransferase (Staphylococcus aureus (strain Mu50 / ATCC 700699)); experiment: Induction of thermal stabilization of Staphylococcus aureus ATCC 700699 CntL assessed as change in melting temperature at 100 uM by fluorescence-based thermal shift assay
[3] = target: T2, L-histidine 2-aminobutanoyltransferase (Pseudomonas aeruginosa) (UniProt Q9HUX4); experiment: Binding affinity to N-terminal his6-tagged Pseudomonas aeruginosa CntL assessed as change in enthalpy by ITC analysis
T2 sequence (whole entry): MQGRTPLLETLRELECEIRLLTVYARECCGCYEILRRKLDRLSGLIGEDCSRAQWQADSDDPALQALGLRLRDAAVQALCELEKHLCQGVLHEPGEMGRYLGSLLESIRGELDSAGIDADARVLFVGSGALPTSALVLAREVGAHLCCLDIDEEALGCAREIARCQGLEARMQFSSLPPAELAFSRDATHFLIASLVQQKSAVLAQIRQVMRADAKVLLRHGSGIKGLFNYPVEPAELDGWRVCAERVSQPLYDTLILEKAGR

[4] = target: T3, D-histidine 2-aminobutanoyltransferase (Staphylococcus aureus (strain Mu50 / ATCC 700699), UniProt A0A0H3JXA8); experiment: Binding affinity to N-terminal his6-tagged Staphylococcus aureus ATCC 700699 CntL assessed as dissociation constant by ITC analysis
T3 sequence (A0A0H3JXA8 whole entry): T1 sequence (whole entry)

[5] = target: T1, D-histidine 2-aminobutanoyltransferase (Staphylococcus aureus (strain Mu50 / ATCC 700699)); experiment: Binding affinity to N-terminal his6-tagged Staphylococcus aureus ATCC 700699 CntL assessed as change in entropy by ITC analysis
[6] = target: T3, D-histidine 2-aminobutanoyltransferase; experiment: Inhibition of N-terminal his6-tagged Staphylococcus aureus ATCC 700699 CntL using SAM as substrate preincubated with compound for 10 mins followed by substrate addition and measured after 25 mins in presence of NADPH by microplate reader analysis
[7] = target: T2, L-histidine 2-aminobutanoyltransferase (Pseudomonas aeruginosa); experiment: Binding affinity to N-terminal his6-tagged Pseudomonas aeruginosa CntL assessed as change in entropy by ITC analysis
[8] = target: T1, D-histidine 2-aminobutanoyltransferase (Staphylococcus aureus (strain Mu50 / ATCC 700699)); experiment: Binding affinity to N-terminal his6-tagged Staphylococcus aureus ATCC 700699 CntL assessed as gibbs free energy change by ITC analysis
[9] = target: T4, L-histidine 2-aminobutanoyltransferase (Pseudomonas aeruginosa, UniProt Q9HUX4); experiment: Binding affinity to N-terminal his6-tagged Pseudomonas aeruginosa CntL assessed as dissociation constant by ITC analysis
T4 sequence (Q9HUX4 whole entry): T2 sequence (whole entry)

[10] = target: T1, D-histidine 2-aminobutanoyltransferase (Staphylococcus aureus (strain Mu50 / ATCC 700699)); experiment: Binding affinity to N-terminal his6-tagged Staphylococcus aureus ATCC 700699 CntL assessed as change in enthalpy by ITC analysis
[11] = target: T2, L-histidine 2-aminobutanoyltransferase (Pseudomonas aeruginosa); experiment: Induction of thermal stabilization of N-terminal his6-tagged Pseudomonas aeruginosa CntL assessed as increase in melting temperature at 500 uM by fluorescence-based thermal shift assay
[12] = target: T1, D-histidine 2-aminobutanoyltransferase (Staphylococcus aureus (strain Mu50 / ATCC 700699)); experiment: Induction of thermal stabilization of Staphylococcus aureus ATCC 700699 CntL assessed as change in melting temperature by fluorescence-based thermal shift assay
[13] = target: T2, L-histidine 2-aminobutanoyltransferase (Pseudomonas aeruginosa); experiment: Binding affinity to N-terminal his6-tagged Pseudomonas aeruginosa CntL assessed as change in gibbs free energy by ITC analysis
[14] = target: T1, D-histidine 2-aminobutanoyltransferase (Staphylococcus aureus (strain Mu50 / ATCC 700699)); experiment: Induction of thermal stabilization of Staphylococcus aureus ATCC 700699 CntL assessed as melting temperature in presence of L-His by fluorescence-based thermal shift assay
[15] = target: T1, D-histidine 2-aminobutanoyltransferase (Staphylococcus aureus (strain Mu50 / ATCC 700699)); experiment: Induction of thermal stabilization of Staphylococcus aureus ATCC 700699 CntL assessed as change in melting temperature in presence of histidine by fluorescence-based thermal shift assay
[16] = target: T1, D-histidine 2-aminobutanoyltransferase (Staphylococcus aureus (strain Mu50 / ATCC 700699)); experiment: Induction of thermal stabilization of Staphylococcus aureus ATCC 700699 CntL assessed as melting temperature in presence of xNA by fluorescence-based thermal shift assay
[17] = target: T1, D-histidine 2-aminobutanoyltransferase (Staphylococcus aureus (strain Mu50 / ATCC 700699)); experiment: Induction of thermal stabilization of Staphylococcus aureus ATCC 700699 CntL assessed as melting temperature by fluorescence-based thermal shift assay
[18] = target: T1, D-histidine 2-aminobutanoyltransferase (Staphylococcus aureus (strain Mu50 / ATCC 700699)); experiment: Induction of thermal stabilization of Staphylococcus aureus ATCC 700699 CntL assessed as melting temperature in presence of D-His by fluorescence-based thermal shift assay
Staphylococcus aureus [19] = experiment: Antibacterial activity against Staphylococcus aureus […] assessed as effect on bacterial growth at 100 uM incubated for 12 hrs in presence of chemically defined medium; format: functional, organism-based
Staphylococcus aureus [20] = experiment: Antibacterial activity against Staphylococcus aureus […] assessed as effect on bacterial growth at 100 uM incubated for 12 hrs in presence of LB medium; format: functional, organism-based
[21] = target: T1, D-histidine 2-aminobutanoyltransferase (Staphylococcus aureus (strain Mu50 / ATCC 700699)); experiment: Inhibition of N-terminal his6-tagged Staphylococcus aureus ATCC 700699 CntL assessed as reduction in intracellular cobalt ion level at 100 uM by ICP-MS analysis; format: cell-based
[22] = target: T1, D-histidine 2-aminobutanoyltransferase (Staphylococcus aureus (strain Mu50 / ATCC 700699)); experiment: Inhibition of N-terminal his6-tagged Staphylococcus aureus ATCC 700699 CntL assessed as reduction in intracellular iron level at 100 uM by ICP-MS analysis; format: cell-based
[23] = target: T1, D-histidine 2-aminobutanoyltransferase (Staphylococcus aureus (strain Mu50 / ATCC 700699)); experiment: Inhibition of N-terminal his6-tagged Staphylococcus aureus ATCC 700699 CntL assessed as reduction in intracellular nickel ion level at 100 uM by ICP-MS analysis; format: cell-based
Staphylococcus aureus [24] = experiment: Antibacterial activity against Staphylococcus aureus […] assessed as effect on bacterial growth at 100 uM incubated for 12 hrs in presence of dCDM medium; format: functional, organism-based

| inhibition [1] [%] | ΔTm [2] [°C] | deltaH [3] [kcal/mol] | Kd [4] [nM] | -TdeltaS [5] [kcal/mol] | IC50 [6] [nM] | -TdeltaS [7] [kcal/mol] | deltaG [8] [kcal/mol] | Kd [9] [nM] | deltaH [10] [kcal/mol] | Activity [11] | ΔTm [12] [°C] | deltaG [13] [kcal/mol] | SMILES | also measured |
| --- | --- | --- | --- | --- | --- | --- | --- | --- | --- | --- | --- | --- | --- | --- |
| < 20 | 1.7 |  |  |  |  |  |  |  |  |  |  |  | Nc1ncnc2c1ncn2[C@@H]1O[C@H](CSCCC(=O)N[C@@H](Cc2c[nH]cn2)C(=O)O)[C@@H](O)[C@H]1O |  |
| 92 | 8.4 | -4.25 | 41 | 7.72 | 60 | -4.84 | -10.1 | 220 | -17.8 | Active | 1 | -9.1 | Nc1ncnc2c1ncn2[C@@H]1O[C@H](CSCCN[C@@H](Cc2c[nH]cn2)C(=O)O)[C@@H](O)[C@H]1O |  |
|  |  | -6.63 | 10900 | 16.4 |  | 0.078 | -6.84 | 15500 | -23.3 |  |  | -6.55 | CSC[C@H]1O[C@@H](n2cnc3c(N)ncnc32)[C@H](O)[C@@H]1O [METHYLTHIOADENOSINE] | Tm [14]: 59 °C; ΔTm [15]: 3.4 °C; Tm [16]: 59.3 °C; Tm [17]: 56.3 °C; Tm [18]: 59 °C |
|  |  |  | 21 | 0.448 | ~60 |  | -10.5 |  | -10.9 | Active | 9.4 |  | Nc1nc(Cl)nc2c1ncn2[C@@H]1O[C@H](CSCCN[C@@H](Cc2c[nH]cn2)C(=O)O)[C@@H](O)[C@H]1O | Activity (Staphylococcus aureus [19]): inactive; Activity (Staphylococcus aureus [20]): inactive; inhibition [21]: Active; inhibition [22]: Active; inhibition [23]: Active; Activity (Staphylococcus aureus [24]): inactive |
| < 20 | 0.7 |  |  |  |  |  |  |  |  |  |  |  | Nc1ncnc2c1ncn2[C@@H]1O[C@H](CSCCCNC(=O)[C@H](N)Cc2c[nH]cn2)[C@@H](O)[C@H]1O |  |
|  |  |  |  |  |  |  |  |  |  | Active | 8.4 |  | Nc1nc(Cl)nc2c1ncn2[C@@H]1O[C@H](CSCCCNC(Cc2c[nH]cn2)C(=O)O)[C@@H](O)[C@H]1O (single isomer, unassigned) |  |
|  |  |  |  |  |  |  |  |  |  |  | 4.7 |  | COc1nc(N)c2ncn([C@@H]3O[C@H](CSCCCN[C@@H](Cc4c[nH]cn4)C(=O)O)[C@@H](O)[C@H]3O)c2n1 |  |
| 96 | 7.7 | -8.65 | 180 | 9.07 | 120 | 0.149 | -9.2 | 600 | -18.3 | Active | 0.7 | -8.48 | Nc1ncnc2c1ncn2[C@@H]1O[C@H](CSCCCN[C@@H](Cc2c[nH]cn2)C(=O)O)[C@@H](O)[C@H]1O |  |

Reference: ChEMBL document CHEMBL6092200, “Structure-guided inhibitor design targeting CntL provides the first chemical validation of the staphylopine metallophore system in bacterial metal acquisition” (Eur J Med Chem, 2024)
